# Reference: ChEMBL document CHEMBL1208751 (Bioorg Med Chem Lett, 2010)
# Test: Solubility of the compound at pH 6.8
# Assay type: physicochemical
# Conditions: buffer
compound,measurement,value
CC(C)CC1n2cncc2CN(Cc2ccc(F)cc2)S1(=O)=O (configuration not stated),solubility,< 0.5 µM
C[C@@H](c1ccc(Cl)cc1)N1Cc2cncn2C(CC(C)(C)O)S1(=O)=O (some centres not stated),solubility,500 µM
